This is an account of results in paper PMC7574383 (Epigenetics, 2020).

One data set has as its system Caco-2 cell monolayer. The experiment in a line: Caco-2 permeability assay. It counts as in vitro ADME, human. The conditions noted are these: Caco-2 monolayer, compounds at 100 μg/ml, after three hours of treatment.
In the next data set the test system is H9c2 cells. The experiment in a line: Senescence-associated β-galactosidase assay, H9c2. Format: cell-based, rat. The conditions noted are these: H9c2, DOXO 0.5 μM, 48 h.
The subject of another data set is HepG2 cells. The experiment in a line: Senescence-associated β-galactosidase assay, HepG2. It counts as cell-based, human. The conditions noted are these: HepG2, DOXO 0.5 μM, 48 h.

As to `CC(C)NCC(O)COc1cccc2ccccc12` (stereo not drawn) [Propranolol], the “Permeability (%)” value with Caco-2 cell monolayer was 82.4%.
As to `COc1cccc2c1C(=O)c1c(O)c3c(c(O)c1C2=O)C[C@@](O)(C(=O)CO)C[C@@H]3O[C@H]1C[C@H](N)[C@H](O)[C@H](C)O1` [DOXO, doxorubicin], the “SA β-gal-positive cells induced” value is listed as about 35% with H9c2 cells and “about 60%” with HepG2 cells.
